Measurements taken from patent US10597388B2, “Pyridazinone herbicides” (FMC CORPORATION, priority 2014, dated 2020).
Read-outs that look alike come from different tables or passages of the source.

Columns and labels:
Format in all cases: in vivo
[1] = test system: momingglory (Ipomoea spp.); assay: Test A greenhouse herbicide test, pre- and postemergence; conditions: 240 h; for pest or weed control at 125 g/ha: 125 g ai/ha; for pest or weed control at 500 g/ha: 500 g ai/ha; for pest or weed control at 500 g/ha / pest or weed control at 1000 g/ha: 0 to 100 scale; for pest or weed control at 1000 g/ha: 1000 g ai/ha
Outline: (§1)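 Seeds sown in loam–sand blend got a preemergence directed soil spray of compound in non-phytotoxic solvent with surfactant. Postemergence treatment was given at 2–10 cm, one- to two-leaf stage. After ~10 d in greenhouse, injury was rated visually vs untreated controls, 0 (no effect) to 100 (complete control).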

[2] = test system: velvetleaf (Abutilon theophrasti); assay: as above; conditions: 240 h; for pest or weed control at 125 g/ha: 125 g ai/ha; for pest or weed control at 500 g/ha: 500 g ai/ha; for pest or weed control at 500 g/ha / pest or weed control at 1000 g/ha: 0 to 100 scale; for pest or weed control at 1000 g/ha: 1000 g ai/ha
Outline: as §1

soybean (Glycine max) = assay: Test E greenhouse herbicide test, pre- and postemergence
Outline: (§2)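 Scores (0–100, visual, vs controls) reflect greenhouse growth of 14 to 21 d after treatment. Application was pre-emergence to silt loam or post-emergence at the 1- to 4-leaf stage.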

[3] = test system: wild poinsettia (Euphorbia heterophylla); assay: as above
Outline: as §2

[4] = post-emergence, Postemergence, 0 is no effect, 100 is complete control, read-out: Morningglory plant response rating
[5] = pre-emergence, Preemergence, 0 no effect, 100 complete control, read-out: Plant response rating, Morningglory
[6] = post-emergence, Postemergence, 0 is no effect, 100 is complete control, read-out: Velvetleaf plant response rating
[7] = pre-emergence, Preemergence, 0 no effect, 100 complete control, read-out: Plant response rating, Velvetleaf
[8] = 62 g ai/ha, Postemergence, scale 0 to 100 (0 no effect, 100 complete control)
[9] = 62 g ai/ha, Preemergence, scale 0 to 100 (0 no effect, 100 complete control)
[10] = 125 g ai/ha, Postemergence, scale 0 to 100 (0 no effect, 100 complete control)
[11] = 125 g ai/ha, Preemergence, scale 0 to 100 (0 no effect, 100 complete control)
[12] = 250 g ai/ha, Postemergence, scale 0 to 100 (0 no effect, 100 complete control)
[13] = Postemergence, 16 g ai/ha, visual, scale 0 no effect to 100 complete control
[14] = Postemergence, 31 g ai/ha, visual, scale 0 no effect to 100 complete control
[15] = Preemergence, 16 g ai/ha, scale 0 to 100, 0 no effect, 100 complete control
[16] = Preemergence, 31 g ai/ha, scale 0 to 100, 0 no effect, 100 complete control
[17] = Preemergence, 250 g ai/ha, visual, scale 0 no effect to 100 complete control

SMILES: Cc1nn(C)c(=O)c(-c2c(C)oc3c(C)cccc23)c1O [Compound 9, 4-(2,7-dimethyl-3-benzofuranyl)-5-hydroxy-2,6-dimethyl-3(2H)-pyridazinone]
- pest or weed control at 125 g/ha ([1]; post-emergence, Postemergence, visual rating after approx. 10 d, 0 to 100 scale (0 no effect, 100 complete control), read-out: Plant response rating, Morningglory): 40%
- pest or weed control at 500 g/ha [1, 4]: 80%
- pest or weed control at 125 g/ha ([1]; pre-emergence, Preemergence, 0 to 100 scale where 0 is no effect and 100 is complete control, read-out: Morningglory plant response rating): 0%
- pest or weed control at 500 g/ha [1, 5]: 0%
- pest or weed control at 125 g/ha ([2]; post-emergence, Postemergence, visual rating after approx. 10 d, 0 to 100 scale (0 no effect, 100 complete control), read-out: Plant response rating, Velvetleaf): 0%
- pest or weed control at 500 g/ha [2, 6]: 10%
- pest or weed control at 125 g/ha ([2]; pre-emergence, Preemergence, 0 to 100 scale where 0 is no effect and 100 is complete control, read-out: Velvetleaf plant response rating): 0%
- pest or weed control at 500 g/ha [2, 7]: 0%

SMILES: Cc1ccc2sc(C)c(-c3c(O)c(C)nn(C)c3=O)c2c1 [Compound 1, 4-(2,5-dimethylbenzo[b]thien-3-yl)-5-hydroxy-2,6-dimethyl-3(2H)-pyridazinone]
- pest or weed control at 1000 g/ha [1, 4]: 100%
- pest or weed control at 1000 g/ha [1, 5]: 90%
- pest or weed control at 1000 g/ha [2, 6]: 100%
- pest or weed control at 1000 g/ha [2, 7]: 100%
- Plant response rating, Soybean (soybean (Glycine max); [8]): 10
- Plant response rating, Soybean (soybean (Glycine max); [9]): 15
- Plant response rating, Soybean (soybean (Glycine max); [10]): 15
- Plant response rating, Soybean (soybean (Glycine max); [11]): 40
- Plant response rating, Soybean (soybean (Glycine max); [12]): 20
- Plant response rating, Soybean (soybean (Glycine max); [13]): 0
- Plant response rating, Soybean (soybean (Glycine max); [14]): 0
- Plant response rating, Soybean (soybean (Glycine max); [15]): 0
- Plant response rating, Soybean (soybean (Glycine max); [16]): 0
- Plant response rating, Soybean (soybean (Glycine max); [17]): 75
- Plant response rating, Poinsettia, Wild [3, 8]: 15
- Plant response rating, Poinsettia, Wild [3, 9]: 30
- Plant response rating, Poinsettia, Wild [3, 10]: 15
- Plant response rating, Poinsettia, Wild [3, 11]: 30
- Plant response rating, Poinsettia, Wild [3, 12]: 35
- Plant response rating, Poinsettia, Wild [3, 13]: 5
- Plant response rating, Poinsettia, Wild [3, 14]: 10
- Plant response rating, Poinsettia, Wild [3, 15]: 20
- Plant response rating, Poinsettia, Wild [3, 16]: 30
- Plant response rating, Poinsettia, Wild [3, 17]: 35
